Assay: Inhibition of His-tagged IRE1alpha D688N mutant KR domain (G547 to L997 reidues) (unknown origin) expressed in Sf9 insect cells measured after 1 hr by TR-FRET assay
Set-up: species or system Homo sapiens

In order of falling IC50:
1. O=S(=O)(Cc1ccccc1)Nc1ccc(-c2ccc3nc(N[C@H]4CCCNC4)ncc3c2)c(F)c1F  0.57 nM
2. O=S(=O)(Cc1ccccc1)Nc1c(F)cc(-c2ccc3nc(N[C@H]4CCCNC4)ncc3c2)cc1F  0.53 nM
3. O=S(=O)(Cc1ccccc1)Nc1c(F)cc(-c2ccc3nc(N[C@@H]4CNC[C@@H](F)C4)ncc3c2)cc1F  0.51 nM
4. CCc1cc(-c2ccc(NS(=O)(=O)Cc3ccccc3)cc2F)cc2cnc(N[C@@H]3CNC[C@@H](F)C3)nc12  0.46 nM
5. CCc1cc(-c2ccc(NS(=O)(=O)CCC(F)(F)F)c(F)c2)cc2cnc(N[C@H]3CC[C@H](N(C)C)CC3)nc12  0.25 nM
6. CCc1cc(-c2ccc(NS(=O)(=O)Cc3ccccc3)c(F)c2)cc2cnc(N[C@@H]3CNC[C@@H](F)C3)nc12  0.18 nM

From ChEMBL document CHEMBL4715921, “Novel Quinazolinyl Compounds as Endoribonuclease Inositol Requiring Enzyme 1 (IRE 1α) Inhibitors for Treating Cancer” (ACS Med Chem Lett, 2021)
